Reference: BindingDB's records for doi:10.1021/np020058m (Kyoto Pharmaceutical University, 2002)

Biological target: Aldo-keto reductase family 1 member B1 (Rattus norvegicus, UniProt P07943)
Test: Inhibition of aldose reductase in rat lens homogenates by fluorophotometer

Row | IC50 [µM] | Structure (SMILES)
1 | 18 | CC(=O)O[C@H]1[C@H](Oc2c(-c3ccc(O)c(O)c3)oc3cc(O)cc(=O)c-3c2O)O[C@H](CO[C@@H]2O[C@@H](C)[C@H](O)[C@@H](O)[C@H]2O)[C@@H](O)[C@@H]1O [3-O-alpha-L-rhamnopyranosyl(1->6)-2''-O-acetyl-beta-D-glucopyranoside]
2 | 18 | C[C@@H]1O[C@@H](O[C@H]2[C@H](Oc3c(-c4ccc(O)c(O)c4)oc4cc(O)cc(=O)c-4c3O)O[C@H](CO)[C@H](O)[C@@H]2O)[C@H](O)[C@H](O)[C@H]1O [quercetin 3-O-neohesperidoside]
